In patent US20070027150A1 (priority 2005, published 2007):

Target: His-tagged N-terminal ATP binding domain (amino acid residues 9-236) of HSP90α (Homo sapiens, UniProt P07900)
Assay: HSP90 inhibitor binding potency: TRF competition binding assay
Conditions: Table II; read-out: Hsp90 IC50 Range
Procedure, shortened: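 Competition against biotinylated radicicol for binding to the His-tagged 9-236 ATP domain of HSP90α: 2 h, room temperature, HEPES/MgCl2/KCl/BSA buffer. Streptavidin capture, then europium-labeled anti-His antibody and enhancement solution; europium counts give IC50.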

| IC50 [µM] | SMILES |
| --- | --- |
| < 1 | COc1nc(-c2cc(F)ccc2C2CC(=O)c3c(C)nc(N)nc3C2)cnc1Cl (stereo not shown) [Compound 334, 2-amino-7-[2-(5-chloro-6-methoxy-pyrazin-2-yl)-4-fluoro-phenyl]-4-methyl-7,8-dihydro-6H-quinazolin-5-one] |
| < 1 | CCc1nc(N)nc2c1C(=O)CC(c1ccc(F)cc1-c1cnc(N)c(OC)n1)C2 (stereo not shown) [Compound 335, 2-amino-7-[2-(5-amino-6-methoxy-pyrazin-2-yl)-4-fluoro-phenyl]-4-ethyl-7,8-dihydro-6H-quinazolin-5-one] |
| < 1 | CCOc1cncc(-c2cc(F)ccc2[C@@H]2CC(=O)c3c(C)nc(N)nc3C2)n1 [Compound 336, (S)-2-amino-7-[2-(6-ethoxy-pyrazin-2-yl)-4-fluoro-phenyl]-4-methyl-7,8-dihydro-6H-quinazolin-5-one] |
| < 1 | COc1nc(-c2cc(F)ccc2[C@@H]2CC(=O)c3c(C)nc(N)nc3C2)c(C)nc1N [Compound 337, (S)-2-amino-7-[2-(5-amino-6-methoxy-3-methyl-pyrazin-2-yl)-4-fluoro-phenyl]-4-methyl-7,8-dihydro-6H-quinazolin-5-one] |
